In PMC8997995, “Amphiphilic Cell-Penetrating Peptides Containing Natural and Unnatural Amino Acids as Drug Delivery Agents” (Cells, 2022):
Read-outs that look alike come from different tables or passages of the source. Non-standard residues stand in square brackets, D forms with d. Residues, ends and D or L forms follow the SMILES beside them. *: point of attachment. 5FAM = O=C1OC2(c3ccc(O)cc3Oc3cc(O)ccc32)c2ccc(C(=O)*)cc21; Dip = N[C@H](C(=O)O)C(c1ccccc1)c1ccccc1

Assays:
[1] = design: method as in earlier work; conditions: cited from earlier work
Text: In continuation of our efforts to design cyclic CPPs with improved molecular transporter properties, we report here the design and synthesis of a new class of CPPs, containing R, diphenylalanine (Dip), and W residues (Figure 1), the evaluation of their cytotoxicity, cellular uptake, nanostructure formation, and mechanism of actions.

[2] = tested on: CCRF-CEM cells; experiment: In vitro cytotoxicity (MTS) in CCRF-CEM cells; type: cell-based, human; conditions: for reduction of cell proliferation: 25 µM, MTS, n = 3
Experimental: (§1) SK-OV-3, CCRF-CEM, HEK-293, MDA-MB-468, LLC-PK1, and MES-SA were used to determine the cytotoxicity of the synthesized linear and cyclic peptides. About 5000, 10,000, and 50,000 cells were seeded for SK-OV-3, HEK-293, and CCRF-CEM cells, respectively, in 0.1 mL of medium per well of 96-well plates. An appropriate medium was used for each cell line (SK-OV-3: McCoy’s 5A with L-glutamine containing fetal bovine serum (FBS) (10%) and penicillin or streptomycin (1%); CCRF-CEM: RPMI-1640 medium with L-glutamine and sodium bicarbonate containing FBS (10%) and penicillin or streptomycin (1%); MDA-MB-468 cells: DMEM/F12 (1:1) (1×) with L-glutamine and 15 mM HEPES containing FBS (10%) and penicillin or streptomycin (1%); LLC-PK1 cells: Dulbecco’s Modified Eagle’s Medium with 4500 mg/L glucose, L-glutamine and sodium bicarbonate, without sodium pyruvate liquid containing FBS (10%) and penicillin or streptomycin (1%); MES-SA cells: consisting of half SK-OV-3 and half CCRF-CEM media; and HEK-293 cells: Minimum Essential Medium Eagle with Earle’s salts and sodium bicarbonate, without L-glutamine containing FBS (10%) and penicillin or streptomycin (1%)). Then, 20 µL of peptides containing 5% DMSO in water were added to each well.
(§2) Adhesive cells were detached with 0.05% trypsin/EDTA after 15 min. The suspended cells were seeded in the medium 24 h prior to the experiment according to the previously reported procedure. The medium was changed before adding the peptides for adherent cells. Each concentration 5, 10, 25, 50, and 166 µM (containing 0.8% DMSO) had triplicate wells to minimize possible errors. […] The cell viability was measured by utilizing Multi-Mode Microplate Reader (SpectraMax M5 model, Molecular Devices, San Jose, CA, USA) after adding 20 µL of the MTS reagent to each well and incubating for 3 additional hours. […] The protocol manager was selected “endpoint” on the spectrophotometer’s software (SoftMax Pro 7). The 96-well plates were inserted inside spectrophotometer, and the data were acquired. The percentage of cell viability was calculated using the following equation:(1) =(Average OD values of samples treated with the compound /Average OD values of no treatment samples )∗100

[3] = Transmission electron microscopy, self-assembly; type: physicochemical; conditions: TEM, 30 μM, dried on grid overnight, not stained
Experimental: Transmission electron microscopy (TEM) was done on a LVEM 5D Microscope model (Delong instruments, Brno, Czech Republic) samples were prepared on an Ultrathin Carbon Film on Lacey Carbon Support Film with 400 mesh copper from Ted Pella. Dilute solutions of 30 μM concentration were used for the TEM analysis. Samples were dropped on grids, evaporated overnight, and not stained. They were incubated for approximately 2 h after thawing from a freezer (0 to −18 °C). Samples were air-dried, and images were obtained with a LVEM5 (Delong Instruments, US) 5 keV field emission gun. The camera was Zyla 5.5 Scientific CMOS with specifications of exposure 50–200 [ms], pixel readout 200 MHz—lowest noise, dynamic range 12-bit (low noise), and summing 1.

[4] = Circular dichroism, estimate of secondary structure; type: physicochemical; conditions: CD, 100 µM peptide in water, principal component regression analysis
Experimental: Samples were prepared in 100 µM concentration dissolved in water only. The cuvette with the 1 mm path length was used for all the measurements. The circular dichroism analysis was performed with a J-1500 Jasco spectrophotometer using nitrogen gas and PM-539 detector. Parameters were selected as follows: data interval 0.1 nm, data points 701, data pitch 0.1 nm, CD scale 200 mdeg/0.1 dOD, FL scale 200 mdeg/0.1 dOD, D.I.T 2 s, bandwidth 1 nm, cell length 1 mm, start mode immediately, scanning mode continuous, scanning speed 50 nm/min, shutter control auto, and N2 flowmeter manual. An average of three readings between 190 and 260 nm were collected for each sample. The analysis was carried out using one of Multivariate Regression Analyses, which is Principal Component Regression (PCR) with a basis set containing 26 proteins reference under the following conditions: standardization of result 100, replaced negative value to zero, and rejection percentage of 1%.

[5] = tested on: CCRF-CEM cells; experiment: Cellular uptake by flow cytometry in CCRF-CEM cells; type: cell-based, human; conditions: peptide 10 µM, 3 h, no FBS, flow cytometry FITC, n = 3
Experimental: CCRF-CEM and SK-OV-3 cells were used to measure the cellular uptake of a fluorescent-labeled phosphopeptide (F’-GpYEEI) (2 µM), stavudine (F’-d4T) (2 µM) lamivudine (F’-3TC) (1–2 µM), emtricitabine (F’-FTC) (2 µM), and siRNA (F’-siRNA) (36 nM) with the least toxic concentration for each linear and the cyclic peptide (10 µM). The uptake was measured in the presence and absence of the peptides. The SK-OV-3 (0.5 million) and CCRF-CEM (a million) cells were incubated in each well of 6-well plates with the synthesized peptide and the fluorescent-labeled compound in one well. Another well contained the fluorescent-labeled compound alone for 3 h in an incubator (37 °C in a humidified atmosphere of 5% CO2). […] For more details, please refer back to the cytotoxicity method described above.
The cells were transferred to FACS analysis tubes after being washed with phosphate-buffered saline (PBS). The cells were centrifuged 2500 RPM for 5 min with Fisher Scientific accuSpin Micro 17 to precipitate the cells and to allow replacing the supernatant. The cells were then vortexed with Nerl Blood Bank Saline pH 7–7.2 (flow cytometry buffer) and transferred to the tube through a sterile cell strainer 40 µm Nylon Mesh. Finally, the cells were resuspended in flow cytometry buffer and analyzed by flow cytometry (FACSVerse model, Becton Dickinson, San Jose, CA, USA) using the FITC channel and the BD FACSuite software. The device was washed before each experiment, and the flow rate was set at medium. Finally, the cells were analyzed by using FITC channel […] argon laser for the excitation and the emitted 519 nm fluorescence for detection. The data presented was based on the FITC-A mean intensity signal for 10,000 cells collected. All assays were performed in triplicates. Results were evaluated to determine whether the peptides are facilitating the fluorescence compound to cross the membrane.
To determine the mechanism of the cellular uptake, F’-[K(DipR)5] or the physical mixture of the F’-GpYEEI and [DipR]5 were used to measure the fluorescence in the treated CCRF-CEM cells. F’-[K(DipR)5] (5 or 10 µM) or the physical mixture of the F’-GpYEEI (2 µM) and [DipR]5 (5 or 10 µM) were incubated with CCRF-CEM cells over 3 h. After each incubation, the medium containing the peptide and cells was removed. The same protocol as the cellular uptake study was used to prepare the cells as described above. Finally, the cells were resuspended in the buffer and analyzed by flow cytometry using the FITC channel and the BD FACSuite software. The data presented was based on the percentage of FITC-A mean intensity signal for 10,000 cells collected. All assays were performed in triplicates.

[6] = tested on: SK-OV-3 cells; type: cell-based, human; conditions: MTS, n = 3
Experimental: as §1, §2

[7] = tested on: HEK-293 cells; type: cell-based, human; conditions: HEK-293, 25 µM, 24 h incubation, MTS
Experimental: SK-OV-3, CCRF-CEM, HEK-293, MDA-MB-468, LLC-PK1, and MES-SA were used to determine the cytotoxicity of the synthesized linear and cyclic peptides. About 5000, 10,000, and 50,000 cells were seeded for SK-OV-3, HEK-293, and CCRF-CEM cells, respectively, in 0.1 mL of medium per well of 96-well plates. […]
Adhesive cells were detached with 0.05% trypsin/EDTA after 15 min. […] The cell viability was measured by utilizing Multi-Mode Microplate Reader (SpectraMax M5 model, Molecular Devices, San Jose, CA, USA) after adding 20 µL of the MTS reagent to each well and incubating for 3 additional hours. […] The percentage of cell viability was calculated using the following equation:(1) =(Average OD values of samples treated with the compound /Average OD values of no treatment samples )∗100

Other (random coil) [4] [%] | Turn [4] [%] | α-helix [4] [%] | β-sheet [4] [%] | Structure (SMILES) | also measured
– | – | – | – | N[C@H](C(=O)O)C(c1ccccc1)c1ccccc1 [Dip, 3,3-diphenyl-L-alanine] | Log P (partition coefficient) [1]: 2.93
– | – | – | – | N=C(N)NCCC[C@@H]1NC(=O)[C@H](C(c2ccccc2)c2ccccc2)NC(=O)[C@H](CCCNC(=N)N)NC(=O)[C@H](C(c2ccccc2)c2ccccc2)NC(=O)[C@H](CCCNC(=N)N)NC(=O)[C@H](C(c2ccccc2)c2ccccc2)NC(=O)[C@H](CCCNC(=N)N)NC(=O)[C@H](C(c2ccccc2)c2ccccc2)NC(=O)[C@H](CCCNC(=N)N)NC(=O)[C@H](C(c2ccccc2)c2ccccc2)NC(=O)[C@H](CCCCNC(=O)c2ccc3c(c2)C(=O)OC32c3ccc(O)cc3Oc3cc(O)ccc32)NC1=O [F’-[K(DipR)5]] (cyclo([Dip]R[Dip]R[Dip]R[Dip]R[Dip]RK(5FAM))) | cytotoxicity ([2]; 10 µM, 3 h and 24 h incubations): minimal cytotoxicity; cytotoxicity ([2]; 166 µM, 3 h incubation): no cytotoxicity
– | – | – | – | N[C@@H](Cc1c[nH]c2ccccc12)C(=O)O [W, tryptophan] | Log P (partition coefficient) [1]: 1.82
47.8 | 12.8 | 20.8 | 18.6 | N=C(N)NCCC[C@@H]1NC(=O)[C@H](Cc2c[nH]c3ccccc23)NC(=O)[C@H](CCCNC(=N)N)NC(=O)[C@H](Cc2c[nH]c3ccccc23)NC(=O)[C@H](CCCNC(=N)N)NC(=O)[C@H](C(c2ccccc2)c2ccccc2)NC(=O)[C@H](CCCNC(=N)N)NC(=O)[C@H](C(c2ccccc2)c2ccccc2)NC(=O)[C@H](CCCNC(=N)N)NC(=O)[C@H](Cc2c[nH]c3ccccc23)NC1=O [[(DipR)2(WR)3]] (cyclo([Dip]R[Dip]RWRWRWR)) | morphology of self-assembled structures [3]: star-shaped particles; size of self-assembled structures [3]: 1000–2000 nm; increase of cellular uptake of F’-GpYEEI vs cargo alone ([5]; F’-GpYEEI 2 µM): approximately 7 fold
38.4 | 17.0 | 13.1 | 31.5 | N=C(N)NCCC[C@@H]1NC(=O)[C@H](Cc2c[nH]c3ccccc23)NC(=O)[C@H](CCCNC(=N)N)NC(=O)[C@H](C(c2ccccc2)c2ccccc2)NC(=O)[C@H](CCCNC(=N)N)NC(=O)[C@H](C(c2ccccc2)c2ccccc2)NC(=O)[C@H](CCCNC(=N)N)NC(=O)[C@H](C(c2ccccc2)c2ccccc2)NC(=O)[C@H](CCCNC(=N)N)NC(=O)[C@H](Cc2c[nH]c3ccccc23)NC1=O [[(DipR)3(WR)2]] (cyclo([Dip]R[Dip]R[Dip]RWRWR)) | –
39.7 | 16.8 | 8.6 | 34.9 | N=C(N)NCCC[C@@H]1NC(=O)[C@H](Cc2c[nH]c3ccccc23)NC(=O)[C@H](CCCNC(=N)N)NC(=O)[C@H](C(c2ccccc2)c2ccccc2)NC(=O)[C@H](CCCNC(=N)N)NC(=O)[C@H](C(c2ccccc2)c2ccccc2)NC(=O)[C@H](CCCNC(=N)N)NC(=O)[C@H](C(c2ccccc2)c2ccccc2)NC(=O)[C@H](CCCNC(=N)N)NC(=O)[C@H](C(c2ccccc2)c2ccccc2)NC1=O [[(DipR)4(WR)]] (cyclo([Dip]R[Dip]R[Dip]R[Dip]RWR)) | –
40.5 | 13.8 | 28.9 | 16.8 | N=C(N)NCCC[C@@H]1NC(=O)[C@H](Cc2c[nH]c3ccccc23)NC(=O)[C@H](CCCNC(=N)N)NC(=O)[C@H](Cc2c[nH]c3ccccc23)NC(=O)[C@H](CCCNC(=N)N)NC(=O)[C@H](C(c2ccccc2)c2ccccc2)NC(=O)[C@H](CCCNC(=N)N)NC(=O)[C@H](Cc2c[nH]c3ccccc23)NC(=O)[C@H](CCCNC(=N)N)NC(=O)[C@H](Cc2c[nH]c3ccccc23)NC1=O [[(DipR)(WR)4]] | morphology of self-assembled structures [3]: nanofiber structure; size of self-assembled structures [3]: ~50 nm; reduction of cell proliferation ([6]; SK-OV-3, 10 µM, 72 h incubation): 40%; reduction of cell proliferation ([6]; SK-OV-3, 25 µM, 24 h incubation): 76%; reduction of cell proliferation [7]: 8%; reduction of cell proliferation ([2]; 24 h incubation): 47%; reduction of cell proliferation ([2]; 72 h incubation): 32%; increase of cellular uptake of F’-d4T vs cargo alone ([5]; F’-d4T 2 µM): 12 fold
